Experimental data reported in PubChem BioAssay (NCI).
“And” between values parts separate entries of the source, which are not always exact repeats. Equal entries are not always repeated.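 In this assay, cells in 96-well plates receive the compound at five concentrations for 48 hours. Endpoints are linearly interpolated between the surrounding concentrations. GI50 marks 50% less growth. TGI is the concentration that stops growth completely.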

Key:
Assay in all cases: NCI tumour cell line growth inhibition, 48 h
A498 renal = tested on: A498 renal
A549 NSCLC = tested on: A549 NSCLC
DU-145 prostate = tested on: DU-145 prostate
HOP-62 NSCLC = tested on: HOP-62 NSCLC
HOP-92 NSCLC = tested on: HOP-92 NSCLC
M14 melanoma = tested on: M14 melanoma
MCF7 breast = tested on: MCF7 breast
SK-MEL-28 melanoma = tested on: SK-MEL-28 melanoma
SN12C renal = tested on: SN12C renal
SW-620 colon = tested on: SW-620 colon

SMILES	TGI (A498 renal)	TGI (A549 NSCLC)	TGI (DU-145 prostate)	TGI (HOP-62 NSCLC)	TGI (HOP-92 NSCLC)	TGI (M14 melanoma)	TGI (MCF7 breast)	TGI (SK-MEL-28 melanoma)	TGI (SN12C renal)	TGI (SW-620 colon)	GI50 (A498 renal)	GI50 (A549 NSCLC)	GI50 (DU-145 prostate)	GI50 (HOP-62 NSCLC)	GI50 (HOP-92 NSCLC) [µM]	GI50 (M14 melanoma)	GI50 (MCF7 breast)	GI50 (SK-MEL-28 melanoma)	GI50 (SN12C renal)	GI50 (SW-620 colon)
COc1cc(COC(=O)N(CC(=O)O)c2ccccc2)c([N+](=O)[O-])cc1OC	> 100 µM	> 100 µM	> 100 µM	> 100 µM	> 100 µM	> 100 µM	> 100 µM	> 100 µM	> 100 µM	> 100 µM										
COc1ccc(Nc2c3ccccc3nc3ccccc23)cc1	10.5 µM	11 µM	12.3 µM	14.4 µM	2.93 µM	13.6 µM	13 µM	15.3 µM	13 µM	14.4 µM	0.421 µM	0.809 µM	2.43 µM	1.27 µM	0.259	0.735 µM	0.409 µM	2.17 µM	2.18 µM	0.599 µM
COc1ccc2c(c1)n([O-])c1ccccc1[n+]2=O	> 100 µM and 60.4 µM	> 100 µM and 44.7 µM	> 100 µM	> 100 µM	> 100 µM	> 100 µM and 21.7 µM	> 100 µM and 36 µM	> 100 µM	> 100 µM	> 100 µM	82.6 µM and 18.3 µM		29.3 µM and 12.2 µM			62.1 µM and 7.9 µM	20.3 µM and 8.97 µM			
N#C/C(=C\NC(=S)c1ccncc1)c1nc2ccccc2s1	> 100 µM	> 100 µM	> 100 µM	> 100 µM	> 100 µM	> 100 µM	> 100 µM	> 100 µM	> 100 µM	> 100 µM										
COc1cc(/C=C/C(=O)c2ccc(NC(=O)CN3CCN(c4cc5c(cc4F)c(=O)c(C(=O)O)cn5C4CC4)CC3)cc2)cc(OC)c1OC	2.83 µM	2.14 µM	> 27.1 µM	3.93 µM	7.58 µM	13.6 µM	> 100 µM	12.7 µM	9.01 µM		0.825 µM	0.368 µM	1.07 µM	0.353 µM	1.79	1.15 µM	0.381 µM	1.42 µM	0.632 µM	0.485 µM
C=C1CC/C=C(\C)C(=O)C[C@@H]2[C@@H]1CC2(C)C	> 30 µM	> 56 µM	16.6 µM	31.1 µM	6.4 µM	19.7 µM	5.94 µM	6.34 µM	13 µM	11.5 µM										
O=C1c2ccccc2C(=O)c2c1ccc(C1C(=O)c3ccccc3C1=O)c2-c1c(C2C(=O)c3ccccc3C2=O)ccc2c1C(=O)c1ccccc1C2=O	> 100 µM	> 100 µM	> 100 µM	> 100 µM	> 100 µM	> 100 µM	> 100 µM	> 100 µM	> 100 µM	> 100 µM										
NC(=O)c1ccc2nc(-c3ccc(Oc4ccc(Cl)cc4)cc3)[nH]c2c1	75 µM and 30.1 µM	75 µM and 28 µM	75 µM and 29.8 µM	75 µM and 36.1 µM	> 75 µM	75 µM and 29.8 µM	75 µM and 23.9 µM	75 µM and 29 µM	75 µM and 30.2 µM	75 µM and 25.9 µM	21.2 µM and 15.7 µM	49.8 µM and 10.4 µM	35 µM and 13 µM	48.4 µM and 13.7 µM	> 75	19.9 µM and 14.8 µM	33.1 µM and 6.4 µM	40.4 µM and 15.6 µM	39.4 µM and 14.6 µM	23 µM and 9.61 µM
Cc1cccc2c(=O)c3c(sc12)c(NCCNCCO)nc1ccccc13	3.7 µM	3.19 µM	3.12 µM	2.87 µM	3.05 µM	3.37 µM	2.72 µM	3.31 µM	3.05 µM	3.01 µM	1.67 µM	1.47 µM	1.68 µM	1.28 µM	1.17	1.68 µM	1.24 µM	1.79 µM	1.54 µM	1.45 µM
CSc1ccc(NC(=S)NN(C)C)cc1	> 10 µM	> 10 µM	> 10 µM	> 10 µM	> 10 µM	> 10 µM	> 10 µM	> 10 µM	> 10 µM	> 10 µM										
Nc1nc(-c2ccccc2)nc(N)c1N=O	30.6 µM	23.3 µM	21.6 µM	30.5 µM	23.5 µM	19.5 µM	27.1 µM	30.6 µM	18.1 µM	5.77 µM	15.6 µM	8.86 µM	9.5 µM	12.8 µM	5.32	5.68 µM	5.85 µM	11.9 µM	4.51 µM	2 µM
NC(=O)c1cc(-c2ccc(F)cc2)cc(-c2ccncc2)c1N	> 23.6 µM	> 25 µM	> 25 µM	> 25 µM	> 25 µM	> 25 µM	> 25 µM	> 25 µM	> 25 µM	> 25 µM	4.17 µM	> 25 µM	> 25 µM	> 25 µM	23	> 25 µM	> 25 µM	> 25 µM	> 25 µM	> 25 µM
CCn1cc(C(=O)O)c(=O)c2cc3c(cc21)S(=O)(=O)CC3	> 100 µM	> 100 µM	> 100 µM	> 100 µM	> 100 µM	> 100 µM	> 100 µM	> 100 µM	> 100 µM	> 100 µM										
CC(=Nc1ccccc1)C1=C(O)C(Cc2ccccc2)NC1=O (configuration not stated)	0.259 µM	> 100 µM	1.29 µM		> 100 µM	0.102 µM	> 100 µM	> 100 µM	> 100 µM	> 100 µM	0.0307 µM	0.052 µM	0.133 µM	0.0435 µM	0.0515	0.0248 µM	0.0367 µM	0.0712 µM	0.227 µM	0.0328 µM
COc1cc2c3c(n(CCCI)c(=O)c2cc1OC)-c1cc2c(cc1C3=O)OCO2	> 100 µM	> 100 µM	> 100 µM	> 100 µM	> 100 µM	> 100 µM	6.01 µM	> 100 µM		> 100 µM	6.79 µM	2.5 µM	2.28 µM	4.45 µM	> 100	3.05 µM	0.404 µM	52.1 µM		3.17 µM
O=C(O)c1cnc2[nH]ccn2c1=O	> 100 µM	> 100 µM	> 100 µM	> 100 µM	> 100 µM	> 100 µM	> 100 µM	> 100 µM	> 100 µM	> 100 µM										
CC1(C)[C@@H](O[C@@H]2OC[C@@H](O[C@@H]3O[C@H](CO)[C@@H](O)[C@H](O)[C@H]3O[C@@H]3OC[C@@H](O)[C@H](O)[C@H]3O)[C@H](O)[C@H]2O[C@@H]2O[C@H](CO)[C@@H](O)[C@H](O)[C@H]2O)CC[C@]2(C)[C@H]3CC[C@]45OC[C@@]6(CC[C@](C)(C=O)C[C@H]64)[C@H](O)C[C@@]5(C)[C@]3(C)CC[C@@H]12	1.53 µM	1.95 µM	2.33 µM	1.79 µM	1.54 µM	1.81 µM	2.43 µM	1.77 µM	1.79 µM	2.04 µM	0.825 µM	0.943 µM	1.09 µM	0.898 µM	0.704	0.925 µM	0.972 µM	0.903 µM	0.847 µM	0.969 µM
Fc1ccc(Nc2nc3nonc3nc2Nc2ccc(F)cc2)cc1	0.66 µM	11.4 µM	15 µM	2.13 µM	0.629 µM	10.5 µM	11.2 µM	11 µM	3.01 µM	14.2 µM	0.163 µM	0.354 µM	0.57 µM	0.319 µM	0.168	0.586 µM	0.567 µM	0.505 µM	0.301 µM	0.573 µM
COc1ccc(-c2nc3ccccn3c2/C=C/C(=O)c2cc(OC)c(OC)c(OC)c2)cc1	43.9 µM	> 100 µM	41.1 µM	> 100 µM	51.4 µM	28.6 µM	21.4 µM	> 100 µM	> 100 µM	> 100 µM	10.4 µM	7.96 µM	7.21 µM	36.2 µM	2.36	9.8 µM	2.38 µM	7.1 µM	11.4 µM	4.16 µM
CN(CC(=O)N(Cc1ccc(C2CCCCC2)cc1)c1ccc(C(=O)O)c(O)c1)S(=O)(=O)c1c(F)c(F)c(F)c(F)c1F	26.1 µM	31.7 µM	29 µM	30.4 µM	8.91 µM	13 µM	15.1 µM	3.89 µM	24.4 µM	3.23 µM	13.2 µM	14.9 µM	15.6 µM	13.4 µM	1.95	3.07 µM	3.56 µM	1.86 µM	6.74 µM	1.71 µM
O=c1[nH]c(=O)n(C2CC(O)C(CO)O2)cc1C1=NC1 (configuration not stated)	> 100 µM	> 100 µM	> 100 µM	> 100 µM	> 100 µM	> 100 µM	> 100 µM	> 100 µM	> 100 µM	> 100 µM										
COc1cc2c(cc1Nc1nc(Nc3ccsc3C(N)=O)c3cc[nH]c3n1)N(C(=O)CN(C)C)CCC2(C)C	4.97 µM	4.69 µM	5.96 µM	5.3 µM	0.833 µM	5.68 µM	2.97 µM	6.41 µM	7.18 µM	4.1 µM	1.18 µM	0.975 µM	2.88 µM	1.65 µM	< 0.0025	1.43 µM	< 0.0025 µM	3.06 µM	3.13 µM	0.357 µM
CN1c2ccccc2C(C)(C)C12C=Cc1cc(O)ccc1O2 (configuration not stated)	6.3 µM	19.9 µM	8.17 µM	10.6 µM	5.88 µM	5.52 µM		15.5 µM	17.2 µM	13.8 µM	2.39 µM	4.46 µM	2.56 µM	3.44 µM	1.81	2.35 µM	3.52 µM	3.94 µM	3.19 µM	3.4 µM
COc1ccc(Cn2cc3c(c2-c2ccc(OC)cc2)CCc2cnoc2-3)cc1	0.749 µM	> 100 µM	2.71 µM	> 100 µM	> 100 µM	> 33.2 µM	> 100 µM	> 100 µM	> 100 µM	> 100 µM	0.213 µM	0.582 µM	0.35 µM	0.539 µM	1.12	0.404 µM	0.389 µM	0.804 µM	0.795 µM	0.353 µM
CCCCCCCCCCCC1CCCC(C)N1 (configuration not stated)	31.9 µM and 154 µM	32.7 µM and 164 µM	26.1 µM	46 µM and 107 µM	31.8 µM and 90.2 µM	31.7 µM		28.2 µM and 152 µM	23.9 µM and 131 µM		16.2 µM	13.4 µM	12.5 µM	14.8 µM	6.67	8.47 µM	3.24 µM	13.6 µM	6.3 µM	2.71 µM
N#Cc1c(N)nc(N2CCOCC2)c(C#N)c1-c1cccnc1	80.8 µM	> 100 µM	> 100 µM	> 100 µM	> 100 µM	> 100 µM	> 100 µM	> 100 µM	> 100 µM	> 100 µM	27.5 µM	> 100 µM	> 100 µM	24.9 µM	24.8	71.2 µM	55.8 µM	> 100 µM	97.2 µM	> 100 µM
CCNC(=O)c1cc2c(-c3cc(C(C)(C)O)ccc3Oc3c(C)cc(F)cc3C)cn(C)c(=O)c2[nH]1	4.84 µM	14.6 µM	18.4 µM	13.7 µM	10.9 µM	14.2 µM	12.9 µM	17.9 µM	16.8 µM	21 µM	0.898 µM	2.1 µM	4.52 µM	0.914 µM	0.257	1.46 µM	0.521 µM	4.37 µM	3.03 µM	3.56 µM
N#CSCC1CC(O)(c2ccccc2)CC(c2ccc(F)cc2)O1 (configuration not stated)	4.1 µM	18.5 µM	3.45 µM	3.61 µM	6.05 µM	3.13 µM	8.33 µM	15.4 µM	3.47 µM	3.74 µM	1.9 µM	3.86 µM	1.56 µM	1.99 µM	1.93	1.62 µM	2.64 µM	4.23 µM	1.8 µM	2.07 µM
